The source made the active and inactive calls.
Columns and labels:
[1] = test system: A-375; test: MITF: Counter assay: A375 proliferation Measured in Cell-Based System Using Plate Reader - 2084-03_Inhibitor_Dose_DryPowder_Activity. [Related pubchem assays (depositor defined):AID488944]; assay type: functional; details: Homo sapiens
[2] = test system: A-375; test: proliferation inhibition in MITF-low A375 cells – cell-based, cherry-pick samples, set 2, counter-screen for MITF modulator project, dose response (AID 540335); assay type: functional; details: Homo sapiens
[3] = target: T1, Sphingosine 1-phosphate receptor 4 (Homo sapiens, UniProt O95977); test: Fluorescence dose response cell-based high throughput screening assay for agonists of the Sphingosine 1-Phosphate Receptor 4 (S1P4). [Related pubchem assays: 1509 (Primary screen.), 1523 (Confirmation screen in triplicates.)]; assay type: functional
T1 sequence (O95977 whole entry): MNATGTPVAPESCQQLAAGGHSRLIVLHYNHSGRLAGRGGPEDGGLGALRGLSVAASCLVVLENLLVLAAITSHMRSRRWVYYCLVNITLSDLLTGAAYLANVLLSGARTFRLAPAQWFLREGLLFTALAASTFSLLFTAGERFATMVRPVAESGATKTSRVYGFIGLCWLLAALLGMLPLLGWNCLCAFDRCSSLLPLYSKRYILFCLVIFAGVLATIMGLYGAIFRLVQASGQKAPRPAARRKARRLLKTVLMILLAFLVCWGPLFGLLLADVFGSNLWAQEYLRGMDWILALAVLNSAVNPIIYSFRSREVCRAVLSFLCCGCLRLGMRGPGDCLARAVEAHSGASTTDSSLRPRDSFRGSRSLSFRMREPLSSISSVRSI

[4] = target: Sphingosine 1-phosphate receptor 1 (Homo sapiens, UniProt P21453); test: Fluorescence-based counterscreen assay for S1P4 agonists: Cell-based dose response high throughput screening assay to identify agonists of the Sphingosine 1-Phosphate Receptor 1 (S1P1). [Related pubchem assays (depositor defined):AID1509, AID1523, AID1801, AID463107, AID463118, AID463119, AID463122, AID463123, AID463129, AID463225, AID504400, AID504460]; assay type: functional
[5] = target: T2, Polyadenylate-binding protein 1 (Homo sapiens, UniProt P11940); test: MLLE domain peptide-binding blockers, IC50 – biochemical, fluorescence polarization, FITC-PAM2 peptide, dose response (AID 602259); assay type: functional; details: read-out: IC50_Mean
[6] = target: T2, Polyadenylate-binding protein 1; test: MLLE binding blockers, Cy5 peptide tracer – biochemical, fluorescence polarization, Cy5-PAM2 peptide, secondary, miRNA deadenylation inhibitor project, dose response (AID 602260); assay type: functional; details: read-out: IC50_Mean
[7] = target: Lysine-specific demethylase 4C (Homo sapiens, UniProt Q9H3R0); test: inhibition of JMJD2C H3K9me3 demethylation – biochemical, DELFIA europium, cherry-picked samples, dose response (AID 488835); assay type: functional
[8] = target: Nucleotide-binding oligomerization domain-containing protein 2 (Homo sapiens, UniProt Q9HC29); test: PubChem AID 2334; assay type: functional
[9] = test system: HEK293; test: cells; details: Homo sapiens
[10] = target: Tumor necrosis factor (Homo sapiens, UniProt P01375); test: analog potency on TNFa NF-kB signaling – cell-based, revised, SAR follow-up (AID 2337); assay type: functional
[11] = target: Nucleotide-binding oligomerization domain-containing protein 1 (Homo sapiens, UniProt Q9Y239); test: blockers of NOD1 pathway activity – revised, SAR follow-up (AID 2333); assay type: functional
[12] = target: Cytochrome P450 2D6 (Homo sapiens, UniProt P10635);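 note: CYP2D6 member of a cytochrome P450 panel assay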
[13] = target: T3, Heat shock factor protein 1 (Mus musculus, UniProt P38532); test: decrease of HSF1-responsive luciferase luminescence – cell-based, NIH3T3, dose retest, confirmation (AID 2382); assay type: functional;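 note: NIH3T3 fibroblasts with HSF1-driven luciferase reporter stressed by proteasome inhibitor MG132; luminescence from HSF1-driven luciferase expression after 8 hours of MG132 stress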
T3 sequence (P38532 whole entry): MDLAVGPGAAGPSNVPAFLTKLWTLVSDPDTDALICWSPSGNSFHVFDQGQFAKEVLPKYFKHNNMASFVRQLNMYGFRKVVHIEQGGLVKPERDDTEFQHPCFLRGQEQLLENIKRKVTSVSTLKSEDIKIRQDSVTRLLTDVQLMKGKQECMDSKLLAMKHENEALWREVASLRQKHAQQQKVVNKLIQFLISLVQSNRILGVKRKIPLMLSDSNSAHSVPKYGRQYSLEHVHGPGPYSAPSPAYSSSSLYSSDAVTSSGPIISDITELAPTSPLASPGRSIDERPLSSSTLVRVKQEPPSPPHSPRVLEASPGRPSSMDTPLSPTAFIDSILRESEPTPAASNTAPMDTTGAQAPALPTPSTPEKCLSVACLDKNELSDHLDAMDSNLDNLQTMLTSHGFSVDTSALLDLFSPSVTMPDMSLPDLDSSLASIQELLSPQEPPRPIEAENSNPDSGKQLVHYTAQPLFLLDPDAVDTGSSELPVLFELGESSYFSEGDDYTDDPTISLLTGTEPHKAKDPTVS

[14] = test system: HEK293; test: optical interference in Abeta FP readout, dose response, artefact control for IDE activator project, biochemical, fluorescence polarization (AID 588442); assay type: functional, cell-based; details: Homo sapiens
[15] = test system: HEK293; test: membrane integrity loss in HEK cells – cell-based, fluorescence, cytotoxicity control for IDE activator project, dose response (AID 588440); assay type: functional; details: Homo sapiens;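 note: cytotoxicity by LDH release measuring loss of membrane integrity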
[16] = target: T4, Insulin-degrading enzyme (Homo sapiens, UniProt P14735); test: recombinant IDE activation, cell-free – biochemical, fluorescence polarization, counter-screen for IDE activator project, dose response (AID 588681)
T4 sequence (P14735 whole entry): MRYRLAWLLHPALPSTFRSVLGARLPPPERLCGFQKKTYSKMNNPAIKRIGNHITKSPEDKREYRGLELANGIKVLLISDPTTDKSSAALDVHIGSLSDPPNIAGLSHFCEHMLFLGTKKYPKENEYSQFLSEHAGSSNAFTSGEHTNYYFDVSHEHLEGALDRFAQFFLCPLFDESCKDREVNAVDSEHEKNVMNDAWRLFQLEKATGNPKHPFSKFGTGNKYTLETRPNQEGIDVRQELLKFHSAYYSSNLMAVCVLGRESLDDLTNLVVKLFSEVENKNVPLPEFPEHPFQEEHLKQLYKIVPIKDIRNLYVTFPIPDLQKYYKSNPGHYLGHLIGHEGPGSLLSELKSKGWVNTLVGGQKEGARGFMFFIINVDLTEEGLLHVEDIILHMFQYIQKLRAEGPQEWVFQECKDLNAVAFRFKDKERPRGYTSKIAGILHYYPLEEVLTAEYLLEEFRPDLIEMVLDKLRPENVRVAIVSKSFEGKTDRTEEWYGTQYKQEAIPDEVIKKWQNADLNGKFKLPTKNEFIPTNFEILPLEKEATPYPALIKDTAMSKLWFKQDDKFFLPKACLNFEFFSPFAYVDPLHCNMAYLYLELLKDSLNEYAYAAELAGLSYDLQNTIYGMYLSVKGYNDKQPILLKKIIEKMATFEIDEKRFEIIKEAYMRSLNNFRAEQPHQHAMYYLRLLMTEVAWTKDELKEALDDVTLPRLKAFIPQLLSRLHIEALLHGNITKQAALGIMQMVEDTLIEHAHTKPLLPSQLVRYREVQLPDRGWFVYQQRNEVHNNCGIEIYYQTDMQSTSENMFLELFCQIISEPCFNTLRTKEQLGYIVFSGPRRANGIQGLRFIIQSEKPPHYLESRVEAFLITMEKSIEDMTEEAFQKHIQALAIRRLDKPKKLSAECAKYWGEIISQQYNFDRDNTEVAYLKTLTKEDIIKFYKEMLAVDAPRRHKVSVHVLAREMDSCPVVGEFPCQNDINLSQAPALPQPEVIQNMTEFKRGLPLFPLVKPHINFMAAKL

[17] = target: T4, Insulin-degrading enzyme; test: cellular IDE activation of Abeta substrate cleavage – fluorescence polarization, HEK cells, dose response (AID 588439); assay type: functional, cell-based
[18] = target: UDP-galactopyranose mutase (Mycobacterium tuberculosis, UniProt P9WIQ1); test: Inhibitors of Mycobacterium tuberculosis UDP-galactopyranose mutase (UGM) enzyme Measured in Biochemical System Using Plate Reader - 2105-02_Inhibitor_Dose_CherryPick_Activity. [Related pubchem assays (depositor defined):AID504439]
[19] = test system: HeLa; test: viability loss in HeLa cells – cell-based, 24 h, cherry-picked samples, cytotoxicity control, dose response (AID 504726); assay type: functional; details: Homo sapiens;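 note: potency for cytotoxicity as loss of luminescence signal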
[20] = target: T5, Cytochrome P450 1A2 (Homo sapiens, UniProt P05177);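 note: PubChem cytochrome P450 panel assay, CYP1A2 panel member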
T5 sequence (P05177 whole entry): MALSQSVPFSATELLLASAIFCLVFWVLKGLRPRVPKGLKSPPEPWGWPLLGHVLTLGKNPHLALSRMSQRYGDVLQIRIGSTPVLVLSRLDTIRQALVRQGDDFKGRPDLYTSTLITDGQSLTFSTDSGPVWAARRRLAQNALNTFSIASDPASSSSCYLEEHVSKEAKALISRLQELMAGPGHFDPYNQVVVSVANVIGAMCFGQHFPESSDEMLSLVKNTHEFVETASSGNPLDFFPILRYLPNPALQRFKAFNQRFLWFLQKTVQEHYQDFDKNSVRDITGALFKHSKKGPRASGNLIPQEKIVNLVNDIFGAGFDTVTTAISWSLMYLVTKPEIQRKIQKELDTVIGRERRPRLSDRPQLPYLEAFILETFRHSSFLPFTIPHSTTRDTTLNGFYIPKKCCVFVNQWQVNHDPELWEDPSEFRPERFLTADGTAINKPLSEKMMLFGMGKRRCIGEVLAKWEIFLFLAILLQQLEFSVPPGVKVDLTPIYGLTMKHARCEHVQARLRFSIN

[21] = target: Cytochrome P450 2C9 (Homo sapiens, UniProt P11712)
[22] = target: Cytochrome P450 2C19 (Homo sapiens, UniProt P33261); test: Cytochrome panel assay with activity outcomes. Panel member name: p450-cyp2c19 Compounds with AC50 equal or less than 10 uM are considered active; assay type: functional
Sequence of Cytochrome P450 2C19 (P33261 whole entry): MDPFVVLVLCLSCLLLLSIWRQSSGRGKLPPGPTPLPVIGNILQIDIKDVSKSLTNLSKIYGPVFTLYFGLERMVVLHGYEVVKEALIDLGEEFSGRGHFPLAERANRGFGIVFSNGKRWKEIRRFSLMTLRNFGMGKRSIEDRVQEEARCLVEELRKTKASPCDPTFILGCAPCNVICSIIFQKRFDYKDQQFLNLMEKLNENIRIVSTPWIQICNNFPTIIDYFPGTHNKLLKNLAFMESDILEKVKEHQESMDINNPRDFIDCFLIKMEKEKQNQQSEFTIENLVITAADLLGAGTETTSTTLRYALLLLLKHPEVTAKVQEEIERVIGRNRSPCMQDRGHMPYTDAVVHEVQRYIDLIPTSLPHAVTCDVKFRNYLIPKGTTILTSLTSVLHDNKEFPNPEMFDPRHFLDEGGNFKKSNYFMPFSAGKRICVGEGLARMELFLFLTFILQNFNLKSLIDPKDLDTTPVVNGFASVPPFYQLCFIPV

Sequence of Cytochrome P450 2D6 (P10635 whole entry): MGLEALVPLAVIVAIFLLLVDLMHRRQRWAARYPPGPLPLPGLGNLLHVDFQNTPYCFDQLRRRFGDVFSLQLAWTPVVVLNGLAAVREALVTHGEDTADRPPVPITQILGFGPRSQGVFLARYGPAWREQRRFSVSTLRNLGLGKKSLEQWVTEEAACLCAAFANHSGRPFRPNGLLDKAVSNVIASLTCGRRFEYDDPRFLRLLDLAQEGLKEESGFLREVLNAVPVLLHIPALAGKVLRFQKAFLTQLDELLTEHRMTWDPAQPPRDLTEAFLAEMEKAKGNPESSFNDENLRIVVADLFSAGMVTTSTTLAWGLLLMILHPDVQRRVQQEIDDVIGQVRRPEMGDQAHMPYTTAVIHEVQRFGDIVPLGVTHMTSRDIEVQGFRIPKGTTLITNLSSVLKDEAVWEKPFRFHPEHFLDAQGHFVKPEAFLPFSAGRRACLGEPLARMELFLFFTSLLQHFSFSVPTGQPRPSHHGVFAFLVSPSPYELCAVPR
Sequence of Sphingosine 1-phosphate receptor 1 (P21453 whole entry, the tested form may be a part): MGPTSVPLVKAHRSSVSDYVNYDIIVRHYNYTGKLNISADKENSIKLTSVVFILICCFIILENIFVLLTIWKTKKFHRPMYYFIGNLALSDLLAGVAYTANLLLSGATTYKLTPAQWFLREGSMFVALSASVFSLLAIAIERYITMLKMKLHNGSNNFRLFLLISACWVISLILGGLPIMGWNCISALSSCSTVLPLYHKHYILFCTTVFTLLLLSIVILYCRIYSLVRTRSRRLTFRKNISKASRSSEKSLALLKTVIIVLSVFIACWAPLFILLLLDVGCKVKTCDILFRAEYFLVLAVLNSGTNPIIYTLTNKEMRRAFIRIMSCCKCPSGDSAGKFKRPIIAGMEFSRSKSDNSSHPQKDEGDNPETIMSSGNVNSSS
T2 sequence (P11940 whole entry, the tested form may be a part): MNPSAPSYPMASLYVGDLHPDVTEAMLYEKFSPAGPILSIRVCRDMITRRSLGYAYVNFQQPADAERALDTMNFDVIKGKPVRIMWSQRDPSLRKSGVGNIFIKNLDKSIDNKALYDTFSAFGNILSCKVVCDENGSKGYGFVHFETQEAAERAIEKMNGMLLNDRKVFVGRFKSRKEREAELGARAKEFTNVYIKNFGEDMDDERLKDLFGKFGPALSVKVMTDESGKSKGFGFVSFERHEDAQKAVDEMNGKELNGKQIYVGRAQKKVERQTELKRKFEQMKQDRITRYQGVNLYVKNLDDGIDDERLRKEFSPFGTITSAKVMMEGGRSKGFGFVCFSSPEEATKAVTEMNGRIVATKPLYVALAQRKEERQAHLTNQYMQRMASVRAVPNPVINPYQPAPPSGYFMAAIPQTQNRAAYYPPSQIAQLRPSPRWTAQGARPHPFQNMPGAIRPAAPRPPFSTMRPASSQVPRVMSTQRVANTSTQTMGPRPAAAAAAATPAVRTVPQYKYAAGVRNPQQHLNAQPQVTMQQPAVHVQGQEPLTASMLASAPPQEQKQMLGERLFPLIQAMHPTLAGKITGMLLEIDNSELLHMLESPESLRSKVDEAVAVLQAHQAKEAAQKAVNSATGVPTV
Sequence of Nucleotide-binding oligomerization domain-containing protein 1 (Q9Y239 whole entry, the tested form may be a part): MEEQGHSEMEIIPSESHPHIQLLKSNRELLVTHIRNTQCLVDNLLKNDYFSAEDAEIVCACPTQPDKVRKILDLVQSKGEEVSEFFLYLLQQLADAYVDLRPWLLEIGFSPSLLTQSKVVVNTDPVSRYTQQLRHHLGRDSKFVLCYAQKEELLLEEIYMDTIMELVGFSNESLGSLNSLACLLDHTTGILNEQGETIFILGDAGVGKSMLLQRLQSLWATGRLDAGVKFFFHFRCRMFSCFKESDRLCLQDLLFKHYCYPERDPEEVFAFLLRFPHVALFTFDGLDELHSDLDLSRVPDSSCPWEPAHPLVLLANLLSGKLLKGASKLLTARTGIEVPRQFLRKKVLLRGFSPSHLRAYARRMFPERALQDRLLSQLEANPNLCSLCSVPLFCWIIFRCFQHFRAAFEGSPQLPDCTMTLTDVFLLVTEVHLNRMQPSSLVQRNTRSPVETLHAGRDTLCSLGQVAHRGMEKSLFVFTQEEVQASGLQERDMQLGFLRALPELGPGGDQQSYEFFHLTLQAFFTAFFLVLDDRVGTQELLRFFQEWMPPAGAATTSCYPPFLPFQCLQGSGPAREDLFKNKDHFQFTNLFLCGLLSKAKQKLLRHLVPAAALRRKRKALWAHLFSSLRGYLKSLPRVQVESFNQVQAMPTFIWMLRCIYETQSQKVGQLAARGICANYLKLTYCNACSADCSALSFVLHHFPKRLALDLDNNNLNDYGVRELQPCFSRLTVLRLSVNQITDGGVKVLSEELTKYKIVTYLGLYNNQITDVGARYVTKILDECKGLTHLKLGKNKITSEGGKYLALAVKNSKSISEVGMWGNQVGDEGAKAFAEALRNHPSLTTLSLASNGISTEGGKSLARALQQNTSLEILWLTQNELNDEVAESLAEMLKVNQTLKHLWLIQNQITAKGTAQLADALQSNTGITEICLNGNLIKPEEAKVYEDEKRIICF
Sequence of UDP-galactopyranose mutase (P9WIQ1 whole entry): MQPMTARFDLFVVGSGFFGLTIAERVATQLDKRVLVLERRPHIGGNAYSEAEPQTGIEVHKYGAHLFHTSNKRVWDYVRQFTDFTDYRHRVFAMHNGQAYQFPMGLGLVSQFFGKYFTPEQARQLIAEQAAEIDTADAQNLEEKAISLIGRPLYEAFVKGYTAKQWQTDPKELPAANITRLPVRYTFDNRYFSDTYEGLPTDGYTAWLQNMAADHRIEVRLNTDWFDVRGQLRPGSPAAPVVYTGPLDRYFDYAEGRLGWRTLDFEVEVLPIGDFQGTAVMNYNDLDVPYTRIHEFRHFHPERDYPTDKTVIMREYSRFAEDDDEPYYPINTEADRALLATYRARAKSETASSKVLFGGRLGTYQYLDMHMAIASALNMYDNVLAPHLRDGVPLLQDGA
Sequence of Nucleotide-binding oligomerization domain-containing protein 2 (Q9HC29 whole entry, the tested form may be a part): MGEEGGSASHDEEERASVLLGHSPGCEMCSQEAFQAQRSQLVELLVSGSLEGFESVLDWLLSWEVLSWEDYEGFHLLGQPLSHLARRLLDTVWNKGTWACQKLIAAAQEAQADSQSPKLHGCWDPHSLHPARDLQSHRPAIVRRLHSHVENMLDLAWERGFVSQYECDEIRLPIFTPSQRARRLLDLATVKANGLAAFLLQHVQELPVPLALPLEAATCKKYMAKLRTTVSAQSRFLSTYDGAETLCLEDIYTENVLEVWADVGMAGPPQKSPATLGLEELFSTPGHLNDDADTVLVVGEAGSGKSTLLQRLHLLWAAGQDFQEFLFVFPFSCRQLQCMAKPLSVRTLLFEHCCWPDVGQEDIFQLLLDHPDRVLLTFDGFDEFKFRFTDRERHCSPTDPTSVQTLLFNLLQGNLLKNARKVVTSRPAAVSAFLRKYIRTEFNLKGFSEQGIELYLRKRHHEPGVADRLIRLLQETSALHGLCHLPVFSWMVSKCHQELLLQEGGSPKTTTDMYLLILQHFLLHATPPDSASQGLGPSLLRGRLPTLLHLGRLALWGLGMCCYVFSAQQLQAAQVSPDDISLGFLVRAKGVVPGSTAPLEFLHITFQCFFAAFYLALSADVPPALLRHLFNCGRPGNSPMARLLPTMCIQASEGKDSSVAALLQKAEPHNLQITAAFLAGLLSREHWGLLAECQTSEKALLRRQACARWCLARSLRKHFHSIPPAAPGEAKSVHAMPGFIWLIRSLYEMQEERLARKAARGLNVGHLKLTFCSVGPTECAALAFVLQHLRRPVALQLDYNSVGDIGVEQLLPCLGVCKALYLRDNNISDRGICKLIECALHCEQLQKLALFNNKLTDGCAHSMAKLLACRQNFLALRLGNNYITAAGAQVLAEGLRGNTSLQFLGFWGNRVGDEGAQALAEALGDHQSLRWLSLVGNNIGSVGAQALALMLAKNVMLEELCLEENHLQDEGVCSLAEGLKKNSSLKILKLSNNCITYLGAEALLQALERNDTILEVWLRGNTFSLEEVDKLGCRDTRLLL
Sequence of Cytochrome P450 2C9 (P11712 whole entry): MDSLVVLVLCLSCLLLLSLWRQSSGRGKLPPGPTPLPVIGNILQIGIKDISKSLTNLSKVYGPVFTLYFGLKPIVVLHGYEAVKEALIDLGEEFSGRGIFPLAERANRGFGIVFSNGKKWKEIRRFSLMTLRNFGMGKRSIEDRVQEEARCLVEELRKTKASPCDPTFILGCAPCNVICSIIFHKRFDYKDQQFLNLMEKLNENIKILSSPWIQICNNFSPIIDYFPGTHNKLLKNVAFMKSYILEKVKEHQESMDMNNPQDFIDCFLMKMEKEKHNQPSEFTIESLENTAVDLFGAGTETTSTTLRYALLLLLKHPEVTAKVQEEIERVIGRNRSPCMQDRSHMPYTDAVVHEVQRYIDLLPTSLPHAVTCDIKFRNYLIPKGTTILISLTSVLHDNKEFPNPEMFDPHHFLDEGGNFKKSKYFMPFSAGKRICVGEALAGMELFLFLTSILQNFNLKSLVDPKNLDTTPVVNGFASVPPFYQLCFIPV

O=C(Nc1cc2c(cc1Cl)OCCO2)c1ccco1
AC50 [1]: > 11 µM (active)
AC50 [2]: > 11 µM (active)

CNC(=O)c1[nH]cnc1C(=O)N[C@@H](Cc1ccccc1)C(=O)OCc1ccccc1
EC50 [3]: > 16.6 µM (not active)
EC50 [4]: 3.13 µM (active)

O=C(CSc1nc(O)c(Cc2ccccc2)c(=O)[nH]1)c1ccccc1
IC50 [5]: 52.5 µM (inactive)
IC50 [6]: > 66 µM (inactive)
AC50 [7]: 16.9 µM (active)

O=C(Nc1ccc(CN2CCc3ccccc3C2)cc1)c1ccc(Cl)cc1
IC50 [8]: > 20 µM (inactive)
IC50 [9]: > 20 µM (inactive)
IC50 [10]: > 20 µM (inactive)
IC50 [11]: > 20 µM (inactive)

CCS(=O)(=O)N1CCCC(C(=O)NCCCOC(C)C)C1 (stereo not given)
AC50 [12]: inconclusive

C/N=C1/S/C(=C\c2cc(C)n(-c3ccccc3F)c2C)C(=O)N1C
EC50 [3]: 0.844 µM (active)
EC50 [4]: 1.18 µM (active)
EC50 [13]: < 0.16 µM (active)

COc1ccc(N=Nc2nc3ccc(Br)cc3n2C)cc1
EC50 [14]: > 54.7 µM (inactive)
IC50 [15]: > 89.2 µM (inactive)
EC50 [16]: > 54.7 µM (inactive)
EC50 [17]: > 54.7 µM (inactive)
AC50 [18]: 145 µM (active)
AC50 [19]: 98.3 µM (active)

CCCSc1ccc2nc(NC(=O)OC)[nH]c2c1 [ALBENDAZOLE]
AC50 [20]: 0.398 µM (active)
AC50 [12]: inactive
AC50 [21]: inactive
AC50 [22]: inactive
